According to patent US10544143B2, “4-azaindole compounds” (BRISTOL-MYERS SQUIBB COMPANY, priority 2017, dated 2020):
Like-named read-outs stand apart in the source and are kept apart here.

Experiments:
human TLR7 = human TLR7 (Homo sapiens (Human), UniProt Q9NYK1); assay: TLR7 inhibition reporter assay (HEK-Blue SEAP); format: cell-based
human TLR8 = human TLR8 (Homo sapiens (Human), UniProt Q9NR97); assay: TLR8 inhibition reporter assay (HEK-Blue SEAP); settings: read-out: TLR8 IC50;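 further: SEAP driven by IFN-β minimal promoter carrying NF-κB and AP-1 sites, compounds dosed 0.05 nM to 50 µM for 22 h, inhibition scaled between agonist-plus-DMSO and reference-inhibitor wells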
Sequence of human TLR8 (Q9NR97 27-1041): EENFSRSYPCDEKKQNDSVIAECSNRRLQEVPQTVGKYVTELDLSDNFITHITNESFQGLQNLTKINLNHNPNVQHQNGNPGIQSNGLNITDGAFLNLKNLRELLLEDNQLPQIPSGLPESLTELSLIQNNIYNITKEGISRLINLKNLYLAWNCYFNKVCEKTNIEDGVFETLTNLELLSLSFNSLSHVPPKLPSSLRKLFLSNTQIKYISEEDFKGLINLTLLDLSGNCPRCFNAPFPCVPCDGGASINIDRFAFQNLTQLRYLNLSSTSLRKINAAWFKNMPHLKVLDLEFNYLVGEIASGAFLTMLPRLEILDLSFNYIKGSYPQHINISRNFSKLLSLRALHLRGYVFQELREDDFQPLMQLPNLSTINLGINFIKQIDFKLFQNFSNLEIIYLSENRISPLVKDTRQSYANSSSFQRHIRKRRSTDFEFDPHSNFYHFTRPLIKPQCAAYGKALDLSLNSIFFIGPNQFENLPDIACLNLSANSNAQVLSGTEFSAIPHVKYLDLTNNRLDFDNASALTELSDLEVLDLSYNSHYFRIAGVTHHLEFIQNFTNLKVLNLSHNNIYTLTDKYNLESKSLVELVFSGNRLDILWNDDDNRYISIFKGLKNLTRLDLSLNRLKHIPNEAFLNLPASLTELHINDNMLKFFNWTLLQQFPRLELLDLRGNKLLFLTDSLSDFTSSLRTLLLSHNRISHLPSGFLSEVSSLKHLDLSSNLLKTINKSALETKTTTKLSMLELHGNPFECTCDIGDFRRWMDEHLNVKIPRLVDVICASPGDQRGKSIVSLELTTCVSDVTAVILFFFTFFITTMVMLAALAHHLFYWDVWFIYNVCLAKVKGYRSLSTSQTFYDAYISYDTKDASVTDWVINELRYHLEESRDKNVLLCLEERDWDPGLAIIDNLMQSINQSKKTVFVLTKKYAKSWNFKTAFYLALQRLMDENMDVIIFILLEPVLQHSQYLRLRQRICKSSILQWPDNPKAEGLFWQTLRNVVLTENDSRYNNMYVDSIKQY

human TLR9 = human TLR9 (Homo sapiens (Human), UniProt Q9NR96); assay: TLR9 inhibition reporter assay (HEK-Blue SEAP); settings: read-out: TLR9 IC50;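 further: SEAP driven by an IFN-β minimal promoter with NF-κB and AP-1 sites, read after 22 h, compounds dosed 0.05 nM–50 µM, inhibition scaled between agonist plus DMSO and reference-inhibitor wells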
Sequence of human TLR9 (Q9NR96 26-1032): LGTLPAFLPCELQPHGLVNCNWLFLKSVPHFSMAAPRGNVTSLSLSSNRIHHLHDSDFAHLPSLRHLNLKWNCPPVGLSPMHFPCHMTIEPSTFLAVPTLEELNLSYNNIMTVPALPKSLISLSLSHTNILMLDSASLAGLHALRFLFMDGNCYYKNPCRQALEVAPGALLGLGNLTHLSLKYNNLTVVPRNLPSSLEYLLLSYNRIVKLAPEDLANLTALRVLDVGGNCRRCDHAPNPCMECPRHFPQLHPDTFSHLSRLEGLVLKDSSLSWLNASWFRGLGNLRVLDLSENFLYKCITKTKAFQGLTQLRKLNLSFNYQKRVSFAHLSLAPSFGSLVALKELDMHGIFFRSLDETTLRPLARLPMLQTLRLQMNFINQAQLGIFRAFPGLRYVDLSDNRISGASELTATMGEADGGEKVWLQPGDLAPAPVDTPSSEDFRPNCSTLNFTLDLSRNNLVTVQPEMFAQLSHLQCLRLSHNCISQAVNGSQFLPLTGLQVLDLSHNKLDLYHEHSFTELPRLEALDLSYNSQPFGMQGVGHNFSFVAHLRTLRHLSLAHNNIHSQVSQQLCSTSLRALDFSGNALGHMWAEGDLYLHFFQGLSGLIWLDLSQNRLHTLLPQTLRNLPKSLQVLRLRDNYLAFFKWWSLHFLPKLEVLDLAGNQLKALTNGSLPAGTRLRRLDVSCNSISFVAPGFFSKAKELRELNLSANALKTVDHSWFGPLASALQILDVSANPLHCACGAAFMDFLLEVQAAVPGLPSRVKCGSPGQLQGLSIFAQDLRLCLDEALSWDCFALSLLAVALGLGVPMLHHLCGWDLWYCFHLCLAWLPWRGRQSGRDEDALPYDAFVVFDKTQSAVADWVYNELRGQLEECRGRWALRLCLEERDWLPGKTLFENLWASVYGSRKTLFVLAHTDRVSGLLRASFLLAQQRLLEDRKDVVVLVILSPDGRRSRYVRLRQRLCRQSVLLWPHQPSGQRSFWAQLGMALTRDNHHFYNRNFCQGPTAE

[1] = HEK-Blue cells overexpressing human TLR7, gardiquimod 7.5 μM stimulation, SEAP reporter
[2] = HEK-Blue cells overexpressing human TLR8, R848 15.9 μM stimulation, SEAP reporter
[3] = HEK-Blue cells overexpressing human TLR9, ODN2006 5 nM stimulation, SEAP reporter
[4] = HEK-Blue human TLR7 cells, gardiquimod 7.5 μM
[5] = HEK-Blue human TLR8 cells, R848 15.9 μM
[6] = HEK-Blue human TLR9 cells, ODN2006 5 nM
[7] = HEK-Blue cells overexpressing human TLR7, SEAP reporter, gardiquimod 7.5 μM
[8] = HEK-Blue cells overexpressing human TLR8, SEAP reporter, R848 15.9 μM
[9] = HEK-Blue cells overexpressing human TLR9, SEAP reporter, ODN2006 5 nM

Sequence of human TLR7 (Q9NYK1 27-1049): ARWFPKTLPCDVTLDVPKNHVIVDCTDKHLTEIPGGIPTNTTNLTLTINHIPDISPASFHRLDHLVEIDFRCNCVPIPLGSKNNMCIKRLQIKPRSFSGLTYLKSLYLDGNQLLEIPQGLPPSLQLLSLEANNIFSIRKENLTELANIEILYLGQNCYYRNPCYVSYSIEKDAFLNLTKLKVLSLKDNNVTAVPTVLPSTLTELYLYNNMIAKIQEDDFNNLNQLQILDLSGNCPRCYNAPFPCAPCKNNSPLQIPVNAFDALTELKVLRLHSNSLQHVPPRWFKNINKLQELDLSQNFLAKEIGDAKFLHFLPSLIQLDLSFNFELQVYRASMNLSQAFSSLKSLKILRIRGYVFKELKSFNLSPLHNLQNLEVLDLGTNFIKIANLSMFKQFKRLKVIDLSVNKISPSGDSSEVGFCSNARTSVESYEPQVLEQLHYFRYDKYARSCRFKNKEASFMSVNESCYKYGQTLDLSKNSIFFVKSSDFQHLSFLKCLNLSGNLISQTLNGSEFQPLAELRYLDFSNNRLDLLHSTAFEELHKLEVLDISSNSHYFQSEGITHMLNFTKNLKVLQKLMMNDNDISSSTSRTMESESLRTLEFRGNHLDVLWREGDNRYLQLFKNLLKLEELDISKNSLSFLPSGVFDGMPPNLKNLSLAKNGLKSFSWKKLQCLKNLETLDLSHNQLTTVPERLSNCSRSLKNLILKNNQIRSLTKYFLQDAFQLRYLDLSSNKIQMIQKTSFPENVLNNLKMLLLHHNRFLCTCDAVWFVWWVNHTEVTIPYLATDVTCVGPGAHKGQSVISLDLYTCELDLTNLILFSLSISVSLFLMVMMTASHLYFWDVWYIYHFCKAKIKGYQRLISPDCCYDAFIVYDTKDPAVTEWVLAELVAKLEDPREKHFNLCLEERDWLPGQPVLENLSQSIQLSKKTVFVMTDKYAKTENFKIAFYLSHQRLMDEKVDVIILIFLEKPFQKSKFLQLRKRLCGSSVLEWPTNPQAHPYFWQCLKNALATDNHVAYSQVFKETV

SMILES	IC50 (human TLR7; [1]) [nM]	IC50 (human TLR8; [2]) [nM]	IC50 (human TLR9; [3]) [nM]	IC50 (human TLR7; [4]) [nM]	IC50 (human TLR8; [5]) [nM]	IC50 (human TLR9; [6]) [nM]	IC50 (human TLR7; [7]) [nM]	IC50 (human TLR8; [8]) [nM]	IC50 (human TLR9; [9]) [nM]
Cc1c(-c2[nH]c3ccc(C4CCC(N(C)C5COC5)CC4)nc3c2C(C)C)cn(C)c(=O)c1C (stereo not drawn) [Example 254]	72	27	8730						
Cc1c(-c2[nH]c3ccc(N4CC5(CN(CC(C)(C)O)C5)C4)nc3c2C(C)C)cn2ncnc2c1C [Example 1004]				2.1	1.3	2790			
Cc1c(-c2[nH]c3ccc(C4CCC(NC(C)C)CC4)nc3c2C(C)C)cn2ncnc2c1C (stereo not drawn) [Example 363]	3.3	6.6	1480						
Cc1c(-c2[nH]c3ccc(N4CCN(C5CCOCC5)CC4)nc3c2C(C)C)cn2ncnc2c1C [Example 101]	3.7	0.25	6400						
CC(C)c1c(-c2cn(C)c3ncccc23)[nH]c2ccc(CCC3CNC3)nc12 [Example 690]							15	31	288
Cc1c(-c2[nH]c3ccc(C4CCN(CC(C)C)CC4)nc3c2C(C)C)cn(C)c(=O)c1Cl [Example 569]							11	3	2180
Cc1c(-c2[nH]c3ccc(N4[C@H](C)CN(C(C)C)C[C@H]4C)nc3c2C(C)C)cn2ncnc2c1C [Example 865]				1.3	72	8890			
Cc1c(-c2[nH]c3ccc(N4[C@@H]5CC[C@H]4CN(C(=O)CN(C)C)C5)nc3c2C(C)C)cn2ncnc2c1C [Example 747]							0.59	4.1	7380
CC(C)c1c(-c2cn(C)c3ncccc23)[nH]c2ccc(C3CCC(NCCS(C)(=O)=O)CC3)nc12 (stereo not drawn) [Example 247]	1.2	1.2	825						
Cc1c(-c2[nH]c3ccc(N4C[C@@H](C)N(C(=O)CN(C)C)[C@@H](C)C4)nc3c2C(C)C)cn2ncnc2c1C [Example 862]				0.29	2.2	7040			
COc1ncnc(OC)c1CN(C)C1CCN(c2ccc3[nH]c(-c4cn5ncnc5c(C)c4C)c(C(C)C)c3n2)CC1 [Example 61]	4.4	1.8	2410						
Cc1c(-c2[nH]c3ccc(N4CCN(C(=O)CN5CC6(COC6)C5)C[C@@H]4C)nc3c2C(C)C)cn2ncnc2c1C [Example 901]				0.72	0.15	13300			
Cc1c(-c2[nH]c3ccc(C4CCN(CC(N)=O)CC4)nc3c2C(C)C)cn2ncnc2c1C [Example 560]							1.2	1	3820
CC(C)c1c(-c2ccc(=O)n(C)c2)[nH]c2ccc(C3CCNCC3)nc12 [Example 513]							319	307	545
Cc1c(-c2[nH]c3ccc(C4CCN(C5CCN(C)C5=O)CC4)nc3c2C(C)C)cn2ncnc2c1C (stereo not drawn) [Example 563]							0.83	2.4	4260
Cc1c(-c2[nH]c3ccc(N4C[C@@H](C)N(C(=O)CCN(C)C)C[C@@H]4C)nc3c2C(C)C)cn2ncnc2c1C [Example 843]				0.52	1.4	5480			
CCN(C)CCC(=O)N1C[C@H](C)N(c2ccc3[nH]c(-c4cn5ncnc5c(C)c4C)c(C(C)C)c3n2)C[C@H]1C [Example 906]				0.39	0.67	7800			
Cc1c(-c2[nH]c3ccc(N4CCN(CCCS(C)(=O)=O)CC4)nc3c2C(C)C)cn2ncnc2c1C [Example 147]	5	0.26	18700						
CNC(=O)CN1CCC(c2ccc3[nH]c(-c4cn5ncnc5c(C)c4C)c(C(C)C)c3n2)CC1 [Example 539]							0.47	0.82	3320
COc1cc(-c2[nH]c3ccc(N4CCN(C5COC5)CC4)nc3c2C(C)C)cn2ncnc12 [Example 93]	5.3	7.2	35000						

SMILES	IC50 (human TLR7; [1]) [nM]	IC50 (human TLR8; [2]) [nM]	IC50 (human TLR9; [3]) [nM]	IC50 (human TLR7; [4]) [nM]	IC50 (human TLR8; [5]) [nM]	IC50 (human TLR9; [6]) [nM]	IC50 (human TLR7; [7]) [nM]	IC50 (human TLR8; [8]) [nM]	IC50 (human TLR9; [9]) [nM]
Cc1c(-c2[nH]c3ccc(C4CCC(N(CCO)C5COC5)CC4)nc3c2C(C)C)cn2ncnc2c1C (stereo not drawn) [Example 444]							16	5.2	39200
COc1cc(-c2[nH]c3ccc(N4CCN(C5CCC5)CC4)nc3c2C(C)C)cn2ncnc12 [Example 108]	2.5	0.99	3510						
Cc1c(-c2[nH]c3ccc(N4CCN(CCN5CCOCC5)C(=O)C4)nc3c2C(C)C)cn2ncnc2c1C [Example 154]	1920	600	> 50000						
CC(C)c1c(-c2cn(C)c3ncccc23)[nH]c2ccc(N3CC(NCC(=O)N(C)C)C3)nc12 [Example 34]	17	6	1220						
COCCN(C)C(=O)CNC1CCC(c2ccc3[nH]c(-c4cn5ncnc5c(C)c4C)c(C(C)C)c3n2)CC1 (stereo not drawn) [Example 488]							11	8.4	5360
Cc1c(-c2[nH]c3ccc(N4CC(N)C4)nc3c2C(C)C)cn2ncnc2c1C [Example 14]	11	4.2	4330						
Cc1c(-c2[nH]c3ccc(C4CC5(C4)CN(CCCS(C)(=O)=O)C5)nc3c2C(C)C)cn2ncnc2c1C [Example 1030]				3.1	1.9	6280			
Cc1c(-c2[nH]c3ccc(C4CC(N(C)CC(C)(C)O)C4)nc3c2C(C)C)cn2ncnc2c1C (stereo not drawn) [Example 641]							9.2	3.5	3340
Cc1c(-c2[nH]c3ccc(C4CCC(N(C)C5CC5)CC4)nc3c2C(C)C)cn2ncnc2c1C (stereo not drawn) [Example 380]	1.4	1.6	1880						
COc1cc(-c2[nH]c3ccc(N4CCN(C5CCC(O)CC5)CC4)nc3c2C(C)C)cn2ncnc12 (stereo not drawn) [Example 113]	1.4	0.95	3360						
Cc1c(-c2[nH]c3ccc(N4CC(N(C)C(=O)CN(C)C)C4)nc3c2C(C)C)cn2ncnc2c1C [Example 25]	181	117	11700						
Cc1c(-c2[nH]c3ccc(N4CCN(C(C)C)C[C@H]4C)nc3c2C(C)C)cn2ncnc2c1C [Example 833]				1.9	4.9	9780			
COc1cc(-c2[nH]c3cc(C)c(C4CCC(NC5CCOC5)CC4)nc3c2C(C)C)cn2ncnc12 (stereo not drawn) [Example 328]	0.08	1.1	576						
Cc1c(-c2[nH]c3ccc(N4CCN(C(=O)CC(C)(C)N5CC6(COC6)C5)CC4)nc3c2C(C)C)cn2ncnc2c1C [Example 945]				4.8	0.94	7850			
Cc1c(-c2[nH]c3ccc(C4CCN(C5CCOCC5)CC4)nc3c2C(C)C)cn(C)c(=O)c1C [Example 543]							14	5.3	2280
Cc1c(-c2[nH]c3ccc(N4CCN(C(=O)CN5CCC(C)(O)C5)CC4)nc3c2C(C)C)cn2ncnc2c1C (stereo not drawn) [Example 948]				2.8	1.4	12800			
Cc1c(-c2[nH]c3ccc(C4CCC(N(C)Cc5c[nH]nn5)CC4)nc3c2C(C)C)cn2ncnc2c1C (stereo not drawn) [Example 397]							6.3	10	2400
Cc1c(-c2[nH]c3ccc(C4CCC(NC5CCS(=O)(=O)C5)CC4)nc3c2C(C)C)cn2ncnc2c1C (stereo not drawn) [Example 465]							1.1	1.9	5660
Cc1c(-c2[nH]c3ccc(N4C[C@H](C)NC[C@H]4C)nc3c2C(C)C)cn2ncnc2c1C [Example 990]				0.8	4	6020			
Cc1c(-c2[nH]c3ccc(N4CCN(C(=O)CN5CC(C)(C)C5)CC4)nc3c2C(C)C)cn2ncnc2c1C [Example 915]				2.3	1	11100			
